51 compounds from ChEMBL document CHEMBL1148842, “Discovery of novel, non-acidic 1,5-biaryl pyrrole EP1 receptor antagonists” (Bioorg Med Chem Lett, 2007) can be followed below.

The structures appear in SMILES notation.

This test has as its target T1, Prostaglandin E2 receptor EP1 subtype (Homo sapiens, UniProt P34995).
T1 sequence (P34995 whole entry): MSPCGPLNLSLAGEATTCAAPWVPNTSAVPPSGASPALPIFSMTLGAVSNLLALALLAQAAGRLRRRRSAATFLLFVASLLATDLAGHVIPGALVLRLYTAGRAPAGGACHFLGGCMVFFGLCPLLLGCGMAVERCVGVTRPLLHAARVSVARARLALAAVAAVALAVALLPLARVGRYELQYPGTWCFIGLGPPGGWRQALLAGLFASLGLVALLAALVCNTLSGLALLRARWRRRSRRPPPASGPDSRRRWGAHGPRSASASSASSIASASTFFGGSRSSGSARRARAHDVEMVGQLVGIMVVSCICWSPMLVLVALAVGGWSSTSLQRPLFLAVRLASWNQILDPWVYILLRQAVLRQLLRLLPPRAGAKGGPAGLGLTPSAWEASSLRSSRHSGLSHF
Nature of the test: Displacement of [3H]PGE2 from human recombinant EP1 receptor expressed in CHO cells. The class given is cell-based. In general terms: In a radioligand displacement assay an active substance lowers the binding of a labelled ligand.

Regarding `Cc1ccc(-c2cc(Cl)ccc2OCc2ccccc2)n1-c1ccc(C(=O)N[C@@H](C)c2ccccc2)cc1`, the IC50 – broadly, the concentration at which inhibition is half-maximal – is 5.01 nM. Turning to `Cc1ccc(-c2cc(Br)ccc2OCc2ccc(F)cc2F)n1-c1cccc(-c2ncccn2)c1`, the concentration for half-maximal inhibition (IC50) is 126 nM. The value for `Cc1ccc(-c2cc(Br)ccc2OCc2ccc(F)cc2F)n1-c1ccc(C(=O)N(C)C)cc1` was 15.8 nM. The value for `Cc1ccc(-c2cc(Cl)ccc2OCc2ccccc2)n1-c1ccc(C(=O)NCc2ccccc2)cc1` was 25.1 nM; that for `Cc1ccc(-c2cc(Br)ccc2OCc2ccc(F)cc2F)n1-c1cccc(C(O)(C(F)(F)F)C(F)(F)F)c1` was 25.1 nM.

Regarding `Cc1ccc(-c2cc(Cl)ccc2OCc2ccccc2)n1-c1cccc(S(=O)(=O)NC(=O)c2ccccc2)c1`, the half-inhibitory concentration (IC50) was 79.4 nM. With `CCN(CC)C(=O)c1ccc(-n2c(C)ccc2-c2cc(Br)ccc2OCc2ccc(F)cc2F)cc1` the figure was 50.1 nM; with `Cc1ccc(-c2cc(Br)ccc2OCc2ccc(F)cc2F)n1-c1ccc(-c2cnc[nH]2)cc1`, 39.8 nM; with `Cc1nc(-c2cccc(-n3c(C)ccc3-c3cc(Br)ccc3OCc3ccc(F)cc3F)c2)no1`, 200 nM.

Regarding `Cc1ccc(-c2cc(Cl)ccc2OCc2ccccc2)n1-c1ccc(-n2cncn2)cc1`, the IC50 is 501 nM.

As for `Cc1ccc(-c2cc(Cl)ccc2OCc2ccccc2)n1-c1ccc2[nH]ncc2c1`, the IC50 is 39.8 nM. Take `Cc1ccc(-c2cc(Cl)ccc2OCc2ccccc2)n1-c1cccc(C(N)=O)c1`: the IC50 is 63.1 nM. The value for `CC(=O)Nc1cccc(-n2c(C)ccc2-c2cc(Cl)ccc2OCc2ccccc2)c1` was 63.1 nM.

On to `Cc1ccc(-c2cc(Br)ccc2OCc2ccc(F)cc2F)n1-c1cccc(-c2cccnc2)c1`, for which the concentration for half-maximal inhibition (IC50) is 126 nM. With `Cc1ccc(-c2ccccc2OCc2ccccc2)n1-c1cccc(S(C)(=O)=O)c1` the figure was over 1000 nM; with `Cc1ccc(-c2cc(Br)ccc2OCc2ccc(F)cc2F)n1-c1cccc(C(=O)N(C)C)c1`, 10 nM. The value for `CNC(=O)c1ccc(-n2c(C)ccc2-c2cc(Br)ccc2OCc2ccc(F)cc2F)cc1` was 3.98 nM; that for `Cc1ccc(-c2cc(Cl)ccc2OCc2ccccc2)n1-c1cccc(S(C)(=O)=O)c1` was 126 nM; that for `Cc1ccc(-c2cc(Br)ccc2OCc2ccccc2)n1-c1cccc(S(C)(=O)=O)c1` was 200 nM. As for `Cc1ccc(-c2cc(Br)ccc2OCc2ccc(F)cc2F)n1-c1ccc(C(=O)NC(C)(C)C)cc1`, the IC50 was 15.8 nM. The value for `Cc1ccc(-c2cc(Br)ccc2OCc2ccc(F)cc2F)n1-c1cccc(-c2nc3ccccc3[nH]2)c1` was 63.1 nM; that for `Cc1ccc(-c2cc(Cl)ccc2OCc2ccccc2)n1-c1ccc2nn[nH]c2c1` was 25.1 nM.

Turning to `Cc1ccc(-c2cc(Cl)ccc2OCc2ccccc2)n1-c1cccc(C(=O)NS(=O)(=O)c2ccccc2)c1`, the IC50 is 2.51 nM. The value for `Cc1ccc(-c2ccccc2OCc2ccccc2)n1-c1ccc(S(C)(=O)=O)cc1` was 501 nM; that for `Cc1ccc(-c2cc(Cl)ccc2OCc2ccccc2)n1-c1ccc(S(=O)(=O)NC(=O)c2ccccc2)cc1` was 7.94 nM.

Take `Cc1ccc(-c2cc(Cl)ccc2OCc2ccccc2)n1-c1ccc(S(N)(=O)=O)cc1`: the IC50 was 20 nM. As to `Cc1ccc(-c2cc(Cl)ccc2OCc2ccccc2)n1-c1cccc(C(=O)NCc2ccncc2)c1`, the concentration for half-maximal inhibition (IC50) is 63.1 nM.

For the compound `Cc1ccc(-c2cc(Cl)ccc2OCc2ccccc2)n1-c1ccc(C(=O)NCc2ccncc2)cc1`, the half-maximal inhibitory concentration (IC50) was 63.1 nM. Consider `Cc1ccc(-c2ccccc2OCc2ccccc2)n1-c1cccc(C(=O)NS(=O)(=O)c2ccccc2)c1`, for which the 50% inhibitory concentration (IC50) was 2.51 nM. Take `Cc1ccc(-c2cc(Cl)ccc2OCc2ccccc2)n1-c1cccc(C(=O)N[C@@H](C)c2ccccc2)c1`: the IC50 was 316 nM.

Take `Cc1ccc(-c2cc(Cl)ccc2OCc2ccccc2)n1-c1ccc(C(=O)NCc2ccccn2)cc1`: the IC50 was 2.51 nM. Take `Cc1ccc(-c2cc(Cl)ccc2OCc2ccccc2)n1-c1cccc(C(=O)NCc2ccccn2)c1`: the IC50 was 50.1 nM. In the case of `Cc1ccc(-c2cc(Br)ccc2OCc2ccc(F)cc2F)n1-c1cccc(-c2ccccn2)c1`, the IC50 is 251 nM. With `Cc1ccc(-c2cc(Cl)ccc2OCc2ccccc2)n1-c1ccc2cn[nH]c2c1` the figure was 39.8 nM; with `Cc1nnc(-c2cccc(-n3c(C)ccc3-c3cc(Br)ccc3OCc3ccc(F)cc3F)c2)o1`, 39.8 nM.

With `Cc1ccc(-c2cc(Cl)ccc2OCc2ccccc2)n1-c1cccc(C(=O)NCc2ccccc2)c1`, the IC50 is 25.1 nM. Turning to `Cc1ccc(-c2cc(Cl)ccc2OCc2ccccc2)n1-c1ccc(C(=O)NCc2cccnc2)cc1`, the IC50 was 12.6 nM. With `Cc1ccc(-c2ccccc2OCc2ccc(F)cc2F)n1-c1ccc2nn[nH]c2c1` the figure was 631 nM.

With `Cc1ccc(-c2cc(Br)ccc2OCc2ccc(F)cc2F)n1-c1cccc(C(=O)Nc2ccccc2)c1`, the IC50 was 501 nM. Regarding `Cc1ccc(-c2cc(Cl)ccc2OCc2ccccc2)n1-c1cccc(C(=O)NCc2cccnc2)c1`, the IC50 was 63.1 nM. For the compound `Cc1ccc(-c2ccccc2OCc2ccc(F)cc2F)n1-c1cccc(C(N)=O)c1`, the IC50 was 501 nM.

With `Cc1ccc(-c2cc(Cl)ccc2OCc2ccccc2)n1-c1ccc(S(C)(=O)=O)cc1`, the IC50 is 20 nM. With `Cc1ccc(-c2cc(Br)ccc2OCc2ccc(F)cc2F)n1-c1ccc2c(c1)C(=O)NC2=O` the figure was 158 nM; with `Cc1ccc(-c2cc(Cl)ccc2OCc2ccccc2)n1-c1cccc(C(=O)N[C@H](C)c2ccccc2)c1`, 39.8 nM. For `Cc1cc(=O)[nH]c2cc(-n3c(C)ccc3-c3cc(Cl)ccc3OCc3ccccc3)ccc12`, the concentration for half-maximal inhibition (IC50) is 63.1 nM.

As to `Cc1noc(C)c1S(=O)(=O)NC(=O)c1cccc(-n2c(C)ccc2-c2ccccc2OCc2ccccc2)c1`, the 50% inhibitory concentration (IC50) was 5.01 nM. The value for `Cc1ccc(-c2cc(Br)ccc2OCc2ccc(F)cc2F)n1-c1ccc(C(N)=O)cc1` was 7.94 nM. On to `Cc1ccc(-c2cc(Br)ccc2OCc2ccc(F)cc2F)n1-c1cccc(C(=O)NS(C)(=O)=O)c1`, for which the IC50 was 3.98 nM.

As for `CNC(=O)c1cccc(-n2c(C)ccc2-c2cc(Br)ccc2OCc2ccc(F)cc2F)c1`, the 50% inhibitory concentration (IC50) was 20 nM. The value for `Cc1ccc(-c2cc(Cl)ccc2OCc2ccccc2)n1-c1ccc(C(=O)N[C@H](C)c2ccccc2)cc1` was 1.58 nM; that for `Cc1ccc(-c2cc(Br)ccc2OCc2ccccc2)n1-c1ccc(S(C)(=O)=O)cc1` was 31.6 nM.
